Test results as given in US12077503B2, “Substituted cyclic amides and their use as herbicides” (FMC CORPORATION, priority 2015, dated 2024).

What was measured:
Format in all cases: in vivo
[1] = tested on: barnyardgrass (Echinochloa crus-galli); test: Test B flooded paddy test; conditions: Flood, 250 g ai/ha
In short: (§1)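 Compound goes directly into floodwater once pots are flooded 3 cm above soil, targeting plants at two leaves; the water depth is then held for the test duration. Plants sit 13–15 d in a greenhouse and are rated visually, 100 denoting complete control.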

rice (Oryra sativa) = test: Test B flooded paddy test; conditions: Flood, 250 g ai/ha
In short: as §1

[2] = tested on: sedge, umbrella (small-flower umbrella sedge, Cyperus difformis); test: Test B flooded paddy test; conditions: Flood, 250 g ai/ha
In short: as §1

[3] = tested on: ducksalad (Heteranthera limosa); test: Test B flooded paddy test; conditions: Flood, 250 g ai/ha
In short: as §1

[4] = tested on: barnyardgrass (Echinochloa crus-galli); test: Test A preemergence
In short: (§2)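 Preemergence soil spray on seeded pots or post-emergence spray on 1–2 leaf plants, in loam–sand blend. Greenhouse ~10 d. Visual rating 0–100 against untreated plants.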

[5] = tested on: pigweed (Amaranthus retroflexus); test: Test A preemergence
[6] = tested on: ryegrass, Italian (Italian ryegrass, Lolium multiflorum); test: Test A preemergence
In short: as §2

Kochia (Kochia scoparia) [7] = test: Test A preemergence
In short: as §2

[8] = tested on: giant foxtail (Setaria faberii); test: Test A preemergence
In short: as §2

[9] = tested on: ragweed (common ragweed, Ambrosia elatior); test: Test A preemergence
In short: as §2

[10] = tested on: barnyardgrass (Echinochloa crus-galli); test: Test A postemergence
In short: as §2

[11] = tested on: pigweed (Amaranthus retroflexus); test: Test A postemergence
In short: as §2

[12] = tested on: ryegrass, Italian (Italian ryegrass, Lolium multiflorum); test: Test A postemergence
In short: as §2

[13] = tested on: wheat (Triticum aestivum); test: Test A postemergence
In short: as §2

Kochia (Kochia scoparia) [14] = test: Test A postemergence
In short: as §2

[15] = tested on: blackgrass (Alopecurus myosuroides); test: Test A postemergence
In short: as §2

corn (Zea mays) = test: Test A postemergence
In short: as §2

[16] = tested on: Galium (catchweed bedstraw, Galium aparine); test: Test A postemergence
In short: as §2

[17] = tested on: giant foxtail (Setaria faberii); test: Test A postemergence
In short: as §2

[18] = tested on: ragweed (common ragweed, Ambrosia elatior); test: Test A postemergence
In short: as §2

[19] = 0 to 100 scale where 0 is no effect and 100 is complete control, 13 to 15 d
[20] = 125 g ai/ha, Preemergence, visual injury after approximately 10 d, 0 to 100 scale where 0 is no effect and 100 is complete control
[21] = 500 g ai/ha, preemergence, 0 to 100 scale, 0 = no effect, 100 = complete control
[22] = 125 g ai/ha, postemergence, visual rating after approx. 10 d, 0 to 100 scale (0 no effect, 100 complete control)
[23] = Postemergence, 500 g ai/ha, 0 to 100 scale where 0 is no effect and 100 is complete control

COc1c([C@H]2CN(C)C(=O)[C@@H]2C(=O)Nc2ccccc2SC)cccc1C(F)(F)F [Compound 1340]
pest or weed control at 250 g/ha ([1]; Echinochloa crus-galli, 360 h, visually evaluated after 13 to 15 d, read-out: Plant response rating, Barnyardgrass (0 to 100 scale where 0 is no effect and 100 is complete control)): 40%
pest or weed control at 250 g/ha (rice (Oryra sativa); Oryza sativa, 360 h, visually evaluated after 13 to 15 d, read-out: Plant response rating, Rice (0 to 100 scale where 0 is no effect and 100 is complete control)): 20%
pest or weed control at 250 g/ha ([2]; Cyperus difformis, 360 h, visually evaluated after 13 to 15 d, read-out: Plant response rating, Sedge, Umbrella (0 to 100 scale where 0 is no effect and 100 is complete control)): 0%
pest or weed control at 250 g/ha ([3]; Heteranthera limosa, 360 h, visually evaluated after 13 to 15 d, read-out: Plant response rating, Ducksalad (0 to 100 scale where 0 is no effect and 100 is complete control)): 80%
pest or weed control at 31 g/ha ([4]; Echinochloa crus-galli, pre-emergence, 240 h, 31 g ai/ha, Preemergence, 0 to 100 scale where 0 is no effect and 100 is complete control, read-out: Barnyardgrass plant response rating): 90%
pest or weed control at 125 g/ha ([4]; Echinochloa crus-galli, pre-emergence, 240 h, Preemergence, 125 g ai/ha, 0 to 100 scale (0 no effect, 100 complete control), read-out: Plant response rating, Barnyardgrass): 90%
pest or weed control at 31 g/ha ([5]; Amaranthus retroflexus, pre-emergence, 240 h, 31 g ai/ha, Preemergence, 0 to 100 scale where 0 is no effect and 100 is complete control, read-out: Pigweed plant response rating): 0%
pest or weed control at 125 g/ha ([5]; Amaranthus retroflexus, pre-emergence, 240 h, Preemergence, 125 g ai/ha, 0 to 100 scale (0 no effect, 100 complete control), read-out: Plant response rating, Pigweed): 20%
pest or weed control at 31 g/ha ([6]; Lolium multiflorum, pre-emergence, 240 h, 31 g ai/ha, Preemergence, 0 to 100 scale where 0 is no effect and 100 is complete control, read-out: Ryegrass, Italian plant response rating): 0%
pest or weed control at 125 g/ha ([6]; Lolium multiflorum, pre-emergence, 240 h, Preemergence, 125 g ai/ha, 0 to 100 scale (0 no effect, 100 complete control), read-out: Plant response rating, Ryegrass, Italian): 0%
pest or weed control at 31 g/ha (Kochia (Kochia scoparia) [7]; Bassia scoparia, pre-emergence, 240 h, 31 g ai/ha, Preemergence, 0 to 100 scale where 0 is no effect and 100 is complete control, read-out: Kochia plant response rating): 0%
pest or weed control at 125 g/ha (Kochia (Kochia scoparia) [7]; Bassia scoparia, pre-emergence, 240 h, Preemergence, 125 g ai/ha, 0 to 100 scale (0 no effect, 100 complete control), read-out: Plant response rating, Kochia): 0%
pest or weed control at 31 g/ha ([8]; Setaria faberi, pre-emergence, 240 h, 31 g ai/ha, Preemergence, 0 to 100 scale where 0 is no effect and 100 is complete control, read-out: Foxtail, Giant plant response rating): 40%
pest or weed control at 125 g/ha ([8]; Setaria faberi, pre-emergence, 240 h, Preemergence, 125 g ai/ha, 0 to 100 scale (0 no effect, 100 complete control), read-out: Plant response rating, Foxtail, Giant): 90%
pest or weed control at 31 g/ha ([9]; Ambrosia artemisiifolia, pre-emergence, 240 h, 31 g ai/ha, Preemergence, 0 to 100 scale where 0 is no effect and 100 is complete control, read-out: Ragweed plant response rating): 0%
pest or weed control at 125 g/ha ([9]; Ambrosia artemisiifolia, pre-emergence, 240 h, Preemergence, 125 g ai/ha, 0 to 100 scale (0 no effect, 100 complete control), read-out: Plant response rating, Ragweed): 0%
pest or weed control at 125 g/ha ([10]; Echinochloa crus-galli, post-emergence, 240 h, 125 g ai/ha, Postemergence, visual rating about 10 d after treatment, read-out: Barnyardgrass plant response rating (0 to 100 scale, 0 no effect, 100 complete control)): 30%
pest or weed control at 31 g/ha ([10]; Echinochloa crus-galli, post-emergence, 240 h, Postemergence, 31 g ai/ha, 0 is no effect, 100 is complete control, read-out: Barnyardgrass plant response rating (0 to 100 scale)): 20%
pest or weed control at 125 g/ha ([11]; Amaranthus retroflexus, post-emergence, 240 h, 125 g ai/ha, Postemergence, visual rating about 10 d after treatment, read-out: Pigweed plant response rating (0 to 100 scale)): 0%
pest or weed control at 31 g/ha ([11]; Amaranthus retroflexus, post-emergence, 240 h, Postemergence, 31 g ai/ha, 0 is no effect, 100 is complete control, read-out: Pigweed plant response rating (0 to 100 scale)): 0%
pest or weed control at 125 g/ha ([12]; Lolium multiflorum, post-emergence, 240 h, 125 g ai/ha, Postemergence, visual rating about 10 d after treatment, read-out: Ryegrass, Italian plant response rating (0 to 100 scale)): 0%
pest or weed control at 31 g/ha ([12]; Lolium multiflorum, post-emergence, 240 h, Postemergence, 31 g ai/ha, 0 is no effect, 100 is complete control, read-out: Ryegrass, Italian plant response rating (0 to 100 scale)): 0%
plant injury at 125 g/ha ([13]; Triticum aestivum, post-emergence, 240 h, 125 g ai/ha, Postemergence, visual rating about 10 d after treatment, read-out: Wheat plant response rating (0 to 100 scale)): 0%
plant injury at 31 g/ha ([13]; Triticum aestivum, post-emergence, 240 h, Postemergence, 31 g ai/ha, 0 is no effect, 100 is complete control, read-out: Wheat plant response rating (0 to 100 scale)): 0%
pest or weed control at 125 g/ha (Kochia (Kochia scoparia) [14]; Bassia scoparia, post-emergence, 240 h, 125 g ai/ha, Postemergence, visual rating about 10 d after treatment, read-out: Kochia plant response rating (0 to 100 scale)): 20%
pest or weed control at 31 g/ha (Kochia (Kochia scoparia) [14]; Bassia scoparia, post-emergence, 240 h, Postemergence, 31 g ai/ha, 0 is no effect, 100 is complete control, read-out: Kochia plant response rating (0 to 100 scale)): 0%
pest or weed control at 125 g/ha ([15]; Alopecurus myosuroides, post-emergence, 240 h, 125 g ai/ha, Postemergence, visual rating about 10 d after treatment, read-out: Blackgrass plant response rating (0 to 100 scale)): 0%
pest or weed control at 31 g/ha ([15]; Alopecurus myosuroides, post-emergence, 240 h, Postemergence, 31 g ai/ha, 0 is no effect, 100 is complete control, read-out: Blackgrass plant response rating (0 to 100 scale)): 0%
plant injury at 125 g/ha (corn (Zea mays); Zea mays, post-emergence, 240 h, 125 g ai/ha, Postemergence, visual rating about 10 d after treatment, read-out: Corn plant response rating (0 to 100 scale)): 20%
plant injury at 31 g/ha (corn (Zea mays); Zea mays, post-emergence, 240 h, Postemergence, 31 g ai/ha, 0 is no effect, 100 is complete control, read-out: Corn plant response rating (0 to 100 scale)): 0%
pest or weed control at 125 g/ha ([16]; Galium, post-emergence, 240 h, 125 g ai/ha, Postemergence, visual rating about 10 d after treatment, read-out: Galium plant response rating (0 to 100 scale)): 20%
pest or weed control at 31 g/ha ([16]; Galium, post-emergence, 240 h, Postemergence, 31 g ai/ha, 0 is no effect, 100 is complete control, read-out: Galium plant response rating (0 to 100 scale)): 0%
pest or weed control at 125 g/ha ([17]; Setaria faberi, post-emergence, 240 h, 125 g ai/ha, Postemergence, visual rating about 10 d after treatment, read-out: Foxtail, Giant plant response rating (0 to 100 scale)): 50%
pest or weed control at 31 g/ha ([17]; Setaria faberi, post-emergence, 240 h, Postemergence, 31 g ai/ha, 0 is no effect, 100 is complete control, read-out: Foxtail, Giant plant response rating (0 to 100 scale)): 0%
pest or weed control at 125 g/ha ([18]; Ambrosia artemisiifolia, post-emergence, 240 h, 125 g ai/ha, Postemergence, visual rating about 10 d after treatment, read-out: Ragweed plant response rating (0 to 100 scale)): 0%
pest or weed control at 31 g/ha ([18]; Ambrosia artemisiifolia, post-emergence, 240 h, Postemergence, 31 g ai/ha, 0 is no effect, 100 is complete control, read-out: Ragweed plant response rating (0 to 100 scale)): 0%

CN1CC(c2cccc(OC(F)F)c2)C(C(=O)Nc2ccc(F)cc2F)C1=O (stereo not drawn) [Compound 617]
Plant response rating, Barnyardgrass [1, 19]: 90
Plant response rating, Rice (rice (Oryra sativa); [19]): 10
Plant response rating, Sedge, Umbrella [2, 19]: 0
Plant response rating, Ducksalad [3, 19]: 100
Plant response rating, Barnyardgrass [4, 20]: 90
Plant response rating, Barnyardgrass [4, 21]: 90
Plant response rating, Pigweed [5, 20]: 90
Plant response rating, Pigweed [5, 21]: 90
Plant response rating, Ryegrass, Italian [6, 20]: 70
Plant response rating, Ryegrass, Italian [6, 21]: 90
Plant response rating, Kochia (Kochia (Kochia scoparia) [7]; [20]): 70
Plant response rating, Kochia (Kochia (Kochia scoparia) [7]; [21]): 70
Plant response rating, Foxtail, Giant [8, 20]: 90
Plant response rating, Foxtail, Giant [8, 21]: 100
Plant response rating, Ragweed [9, 20]: 30
Plant response rating, Ragweed [9, 21]: 60
Plant response rating, Barnyardgrass [10, 22]: 90
Plant response rating, Barnyardgrass [10, 23]: 90
Plant response rating, Pigweed [11, 22]: 30
Plant response rating, Pigweed [11, 23]: 50
Plant response rating, Ryegrass, Italian [12, 22]: 20
Plant response rating, Ryegrass, Italian [12, 23]: 50
Plant response rating, Wheat [13, 22]: 50
Plant response rating, Wheat [13, 23]: 60
Plant response rating, Kochia (Kochia (Kochia scoparia) [14]; [22]): 50
Plant response rating, Kochia (Kochia (Kochia scoparia) [14]; [23]): 60
Plant response rating, Blackgrass [15, 22]: 40
Plant response rating, Blackgrass [15, 23]: 60
Plant response rating, Corn (corn (Zea mays); [22]): 80
Plant response rating, Corn (corn (Zea mays); [23]): 80
Plant response rating, Galium [16, 22]: 60
Plant response rating, Galium [16, 23]: 60
Plant response rating, Foxtail, Giant [17, 22]: 90
Plant response rating, Foxtail, Giant [17, 23]: 90
Plant response rating, Ragweed [18, 22]: 20
Plant response rating, Ragweed [18, 23]: 50
